Test results published in patent publication US20120258980A1, “Antibacterial Agent for Drug-Resistant Bacteria, Method for Screening for Same, and Use of Same” (priority 2009, published 2012).
≈ marks a conversion by molar mass, not a printed value.

Test system: MRSA, CA-MRSA and MSSA of Staphylococcus aureus
Experiment: MIC measurement, Test Example 4 (MRSA, CA-MRSA and MSSA strains)
Format: cell-based
Conditions: Staphylococcus aureus
Experimental: Each of the bacterial strains listed in Table 1-1 was shake-cultured at 37° C. overnight in 4 mL of a medium (Tryptical Soy Broth: TSB, product of Becton Dickinson and Company). FDA209P was used as a control.
After completion of culturing, the resultant culture was suspended in a cation-adjusted Mueller Hinton Broth (CAMHB, product of Becton Dickinson and Company). Then, the obtained bacterial culture was adjusted in absorbance with the CAMHB so that the absorbance at 578 nm of the bacterial culture was adjusted to 0.3 measured by an absorption spectrometer. In addition, the resultant bacterial culture was 500-fold diluted with the CAMHB.
Each of the 500-fold diluted, pre-cultured bacterial cultures was added at 50 μL/well to the CAMHB containing the quinolones and the nybomycins at various concentrations (50 μL/well), followed by statically culturing at 37° C. overnight.
After completion of culturing, the growth of the bacteria was visually determined based on turbidity to measure MIC in each bacterial strain.
Glycopeptides, imipenem, quinolones and nybomycins were studied for antibacterial activity against the bacterial strains listed in Table 2-1; i.e., MRSA, CA-MRSA and MSSA of Staphylococcus aureus.

Cc1onc(-c2ccccc2)c1C(=O)N[C@@H]1C(=O)N2[C@@H]1SC(C)(C)[C@@H]2C(=O)O [OXA, oxacillin]
MIC (ATCC 29213 / MRSA / MSSA, ATCC 29213, MSSA): 0.25 µg/mL (≈ 0.623 µM)
MIC (COL, MRSA): > 16 µg/mL
MIC (FDA209P / MRSA / MSSA, FDA209P, MSSA): ≤ 0.063 µg/mL
MIC (ISA12-1, MRSA): 4 µg/mL (≈ 9.96 µM)
MIC (ISA12-2, MRSA): 4 µg/mL (≈ 9.96 µM)
MIC (ISA35-1, MRSA): 4 µg/mL (≈ 9.96 µM)
MIC (ISA37-1, MSSA): 2 µg/mL (≈ 4.98 µM)
MIC (ISA49-1, MSSA): 1 µg/mL (≈ 2.49 µM)
MIC (ISA51-1, MSSA): 1 µg/mL (≈ 2.49 µM)
MIC (ISA56-3, MRSA): 8 µg/mL (≈ 19.9 µM)
MIC (ISA58-1, MRSA): 4 µg/mL (≈ 9.96 µM)
MIC (ISA62-1, MRSA): 8 µg/mL (≈ 19.9 µM)
MIC (ISA73-1, MSSA): 1 µg/mL (≈ 2.49 µM)
MIC (KBSA32, MRSA): 8 µg/mL (≈ 19.9 µM)
MIC (KBSA34, MRSA): 16 µg/mL (≈ 39.9 µM)
MIC (KBSA72, MRSA): 128 µg/mL (≈ 319 µM)
MIC (KBSA96, MRSA): 128 µg/mL (≈ 319 µM)
MIC (KBSA171, MRSA): > 128 µg/mL
MIC (KSA24, MRSA): 128 µg/mL (≈ 319 µM)
MIC (KSA31, MRSA): 128 µg/mL (≈ 319 µM)
MIC (KSA36, MRSA): > 128 µg/mL
MIC (MRSA / MSSA / NCTC 8325, NCTC 8325, MSSA): 1 µg/mL (≈ 2.49 µM)
MIC (MRSA / MSSA / USA300, USA300 FPR3757, CA-MRSA): 16 µg/mL (≈ 39.9 µM)
MIC (MW2, CA-MRSA): 8 µg/mL (≈ 19.9 µM)
MIC (N315, MRSA): 32 µg/mL (≈ 79.7 µM)
